The compounds below were run against Kv7.2/7.3 (Homo sapiens, UniProt O43525+O43526) (assay: Kv7.2/7.3 Activation Assay, QPatch single concentration screen). Details: Kv7.2/Kv7.3 co-expressing HEK cells, compound concentration 3 μM, steady-state current at end of 2 s pulse to −30 mV.
Format: cell-based
Design: host or cells: HEK cells, tetracycline-inducible expression; key: 1.2-2.9 (+); 3-3.9 (++); >4 (+++) fold increase over baseline; O represents open channel at holding potential
Procedure: Kv7.2/7.3 Activation Assay
The ability of compounds to potentiate K-currents in Kv7.2/7.3 containing HEK cells was assessed using planar patch-clamp on the QPatch automated screening platform.
The hKv7.2/7.3 cell line was obtained from Chantest (Cleveland, Ohio 44128) cat. #CT6147. These HEK cells will express the Kv7.2/7.3 ion channels when induced.
Cells were maintained in a media containing DMEM/F12; 50/50 (GIBCO cat. #11330), 10% Fetal Bovine Serum (FBS) (GIBCO cat. #26140), 100 units/mL Penicillin-Streptomycin (GIBCO cat. #15140), 0.005 mg/mL Blasticidin (INVIVOGEN cat. #ant-b1-1), 0.5 mg/mL Geneticin (GIBCO cat. #10131), 0.1 mg/mL Zeocin (GIBCO cat. #R25001). Cells used in the electrophysiology assay were maintained in a media without Blasticidin, Geneticin and Zeocin for 2 days and channel expression was induced by adding tetracycline (BIOLINE cat. #BIO-87030) at a final concentration of 1 mg/mL. Cells were grown in T-175 flask to ˜75% confluency. Currents were recorded 24 hours after channel induction.
Test compounds were prepared by performing serial dilutions on a Biomek NX^P (BECKMAN COULTER). Final dilutions were made in external recording solution with a final DMSO concentration of 0.1% DMSO. For single concentration screens each plate had 10 μM retigabine as a positive control and 0.1% DMSO as a negative control.
On the day of the experiment cells were washed with Hank's Balanced Salt Solution (HBBS) (GIBCO cat. #14175) and harvested with Tryple (GIBCO cat. #12604). Cells were then centrifuged at 2000 rpm for 5 minutes and resuspended in CHO-S-SFM (GIBCO cat. #12052) at ˜3×10^6 cells/mL. Cells were stirred for 30 minutes before experiments were started. External recording solution contained (in mM): NaCl (145), KCl (4), CaCl2 (2), MgCl2 (1), HEPES (10) and Glucose (10); pH was adjusted to 7.4 with NaOH and the osmolarity was adjusted to 300-305 mOsM with sucrose if necessary. Internal solution contained (in mM): KCl (125), KF (10), EGTA (5), Na2ATP (5), MgCl2 (3.2), HEPES (5); pH was adjusted to 7.2 with KOH and the osmolarity was adjusted to 298-302 mOsM with sucrose.
Potassium channel activity was measured on the QPatch HTX (Sophion Bioscience) using QPlates with 48-wells/plate. Each cell was taken as an independent experiment and only one compound was tested per well. Potassium channel activity was elicited by holding at −80 mV and stepping to −30 mV for 2 s followed by a 100 ms pulse to −120 mV.
Single Concentration Screen:
Baseline conditions were obtained by recording 5 sweeps in the external solution only, this was repeated for three applications of the external solution. The effect of test compounds on elicited current was then assessed by recording 5 sweeps in the presence of a 3 μM compound solution. The steady-state current at the end of the 2 s pulse to −30 mV was measured to determine the fold increase from baseline.
`CC(C)(O)c1cc(F)c2nc(NC(=O)CC3CC(F)(F)C3(F)F)n(C3CCC3)c2c1` (stereo not drawn) [Example 405, N-(1-cyclobutyl-4-fluoro-6-(2-hydroxypropan-2-yl)-1H-benzo[d]imidazol-2-yl)-2-(2,2,3,3-tetrafluorocyclobutyl)acetamide] was tested, and the “Kv7.2/7.3 Activity: increase over baseline in current” value (from here on “Kv7.2/7.3 Activity: increase”) was “++ (3-3.9 (++))”.
`CC(O)(CC(=O)Nc1nc2ccc(C#N)cc2n1CC(F)(F)F)c1ccccc1` (single isomer, unassigned) [Example 396, N-(6-cyano-1-(2,2,2-trifluoroethyl)-1H-benzo[d]imidazol-2-yl)-3-hydroxy-3-phenylbutanamide] was tested, and the “Kv7.2/7.3 Activity: increase” value was “+ (1.2-2.9 (+))”.
`CC(C)(CC(=O)Nc1nc2cccc(F)c2n1C1CCC1)C(F)(F)F` [Example 408, N-(1-cyclobutyl-7-fluoro-1H-benzo[d]imidazol-2-yl)-4,4,4-trifluoro-3,3-dimethylbutanamide] was tested, and the “Kv7.2/7.3 Activity: increase” value was “++ (3-3.9 (++))”.
`CC(C)(C)CC(=O)Nc1nc2c(F)cc(OCc3ccccc3)cc2n1C1CCC1` [Example 388, N-(6-(benzyloxy)-1-cyclobutyl-4-fluoro-1H-benzo[d]imidazol-2-yl)-3,3-dimethylbutanamide] was tested, and the “Kv7.2/7.3 Activity: increase” value was “+++ (>4 (+++) fold increase over baseline)”.
With `CC(C)(C)n1c(NC(=O)CC(C)(C)C(F)(F)F)nc2c(F)cc(C#N)cc21` [Example 378, N-(1-(tert-butyl)-6-cyano-4-fluoro-1H-benzo[d]imidazol-2-yl)-4,4,4-trifluoro-3,3-dimethylbutanamide] the “Kv7.2/7.3 Activity: increase” value was “+++ (>4 (+++) fold increase over baseline)”.
`C[C@H](C(=O)Nc1nc2ccc(C(C)(C)O)cc2n1C1(C)CCC1)C(C)(C)C` [Example 383, (S)-N-(6-(2-hydroxypropan-2-yl)-1-(1-methylcyclobutyl)-1H-benzo[d]imidazol-2-yl)-2,3,3-trimethylbutanamide] was tested, and the “Kv7.2/7.3 Activity: increase” value was “++ (3-3.9 (++))”.
`CC(O)(CC(=O)Nc1nc2ccc(OC(F)F)cc2n1C1CCC1)c1ccccc1` (single isomer, unassigned) [Example 422, N-(1-cyclobutyl-6-(difluoromethoxy)-1H-benzo[d]imidazol-2-yl)-3-hydroxy-3-phenylbutanamide] was tested, and the “Kv7.2/7.3 Activity: increase” value was “+ (1.2-2.9 (+))”.
For `C[C@H](C(=O)Nc1nc2ccc(C(C)(C)O)cc2n1C12CC(C1)C2)C(C)(C)C` [Example 455, (S)-N-(1-(bicyclo[1.1.1]pentan-1-yl)-6-(2-hydroxypropan-2-yl)-1H-benzo[d]imidazol-2-yl)-2,3,3-trimethylbutanamide], the “Kv7.2/7.3 Activity: increase” value was “++ (3-3.9 (++))”.
For `C[C@H](CC(=O)Nc1nc2c(F)cc(C(C)(C)O)cc2n1C1CCC1)c1ccccc1` [Example 412, (R)-N-(1-cyclobutyl-4-fluoro-6-(2-hydroxypropan-2-yl)-1H-benzo[d]imidazol-2-yl)-3-phenylbutanamide], the “Kv7.2/7.3 Activity: increase” value was “++ (3-3.9 (++))”.
In the case of `CC(C)(O)c1ccc2nc(NC(=O)CC(C)(C)C3CC3)n(C34CC(C3)C4)c2c1` [Example 472, N-(1-(bicyclo[1.1.1]pentan-1-yl)-6-(2-hydroxypropan-2-yl)-1H-benzo[d]imidazol-2-yl)-3-cyclopropyl-3-methylbutanamide], the “Kv7.2/7.3 Activity: increase” value is reported as “+++ (>4 (+++) fold increase over baseline)”.
`CC(C)(C)CC(=O)Nc1nc2cc(C(C)(C)O)c(C(F)(F)F)cc2n1C1CCC1` [Example 450, N-(1-cyclobutyl-5-(2-hydroxypropan-2-yl)-6-(trifluoromethyl)-1H-benzo[d]imidazol-2-yl)-3,3-dimethylbutanamide] was tested, and the “Kv7.2/7.3 Activity: increase” value was “+ (1.2-2.9 (+))”.
For `CC(C)(CC(=O)Nc1nc2ccc(OC(F)F)cc2n1C(C)(C)C)C1CC1` [Example 427, N-(1-(tert-butyl)-6-(difluoromethoxy)-1H-benzo[d]imidazol-2-yl)-3-cyclopropyl-3-methylbutanamide], the “Kv7.2/7.3 Activity: increase” value was “++ (3-3.9 (++))”.
For `COc1cc(F)c2nc(NC(=O)CC(C)(C)C)n(C3(C)CCC3)c2c1` [Example 355, N-(4-fluoro-6-methoxy-1-(1-methylcyclobutyl)-1H-benzo[d]imidazol-2-yl)-3,3-dimethylbutanamide], the “Kv7.2/7.3 Activity: increase” value was “+++ (>4 (+++) fold increase over baseline)”.
`CC(O)(CC(=O)Nc1nc2ccc(C#N)cc2n1C1(C)CCC1)c1c(F)cccc1F` (single isomer, unassigned) [Example 384, N-(6-cyano-1-(1-methylcyclobutyl)-1H-benzo[d]imidazol-2-yl)-3-(2,6-difluorophenyl)-3-hydroxybutanamide] was tested, and the “Kv7.2/7.3 Activity: increase” value was “++ (3-3.9 (++))”.
With `CC(C)(C)CC(=O)Nc1nc2cccc(C#N)c2n1C1(C)CCC1` [Example 473, N-(7-cyano-1-(1-methylcyclobutyl)-1H-benzo[d]imidazol-2-yl)-3,3-dimethylbutanamide] the “Kv7.2/7.3 Activity: increase” value was “++ (3-3.9 (++))”.
With `CC1(C)C[C@@H]1C(=O)Nc1nc2c(F)cc(C#N)cc2n1C(C)(C)C` [Example 372, (S)-N-(1-(tert-butyl)-6-cyano-4-fluoro-1H-benzo[d]imidazol-2-yl)-2,2-dimethylcyclopropane-1-carboxamide] the “Kv7.2/7.3 Activity: increase” value was “++ (3-3.9 (++))”.
In the case of `CC1(CC(=O)Nc2nc3c(F)cc(C(C)(C)O)cc3n2C2CCC2)CC1` [Example 403, N-(1-cyclobutyl-4-fluoro-6-(2-hydroxypropan-2-yl)-1H-benzo[d]imidazol-2-yl)-2-(1-methylcyclopropyl)acetamide], the “Kv7.2/7.3 Activity: increase” value is reported as “++ (3-3.9 (++))”.
For `COc1cccc2nc(NC(=O)CC(C)(C)C)n(C3CCC3)c12` [Example 476, N-(1-cyclobutyl-7-methoxy-1H-benzo[d]imidazol-2-yl)-3,3-dimethylbutanamide], the “Kv7.2/7.3 Activity: increase” value was “+ (1.2-2.9 (+))”.
With `CC(C)(C)CC(=O)Nc1nc2ccc(OCC(F)(F)F)c(F)c2n1C1CCC1` [Example 334, N-(1-cyclobutyl-7-fluoro-6-(2,2,2-trifluoroethoxy)-1H-benzo[d]imidazol-2-yl)-3,3-dimethylbutanamide] the “Kv7.2/7.3 Activity: increase” value was “++ (3-3.9 (++))”.
In the case of `CC1(n2c(NC(=O)CC(C)(C)C(F)(F)F)nc3cc(F)cc(C#N)c32)CCC1` [Example 340, N-(7-cyano-5-fluoro-1-(1-methylcyclobutyl)-1H-benzo[d]imidazol-2-yl)-4,4,4-trifluoro-3,3-dimethylbutanamide], the “Kv7.2/7.3 Activity: increase” value is reported as “+ (1.2-2.9 (+))”.
`CC(C)(O)c1ccc2nc(NC(=O)CC(C)(O)c3ccccc3)n(C34CC(C3)C4)c2c1` (single isomer, unassigned) [Example 335, N-(1-(bicyclo[1.1.1]pentan-1-yl)-6-(2-hydroxypropan-2-yl)-1H-benzo[d]imidazol-2-yl)-3-hydroxy-3-phenylbutanamide] was tested, and the “Kv7.2/7.3 Activity: increase” value was “O”.
With `[2H]C([2H])([2H])C(CC(=O)Nc1nc2ccc(C(C)(C)O)cc2n1C1CCC1)(C([2H])([2H])[2H])C([2H])([2H])[2H]` [Example 448, N-(1-cyclobutyl-6-(2-hydroxypropan-2-yl)-1H-benzo[d]imidazol-2-yl)-3,3-bis(methyl-d3)butanamide] the “Kv7.2/7.3 Activity: increase” value was “++ (3-3.9 (++))”.
`CC(C)(C)CC(=O)Nc1nc2c(F)cc(C(C)(C)O)c(F)c2n1C1CCC1` [Example 438, N-(1-cyclobutyl-4,7-difluoro-6-(2-hydroxypropan-2-yl)-1H-benzo[d]imidazol-2-yl)-3,3-dimethylbutanamide] was tested, and the “Kv7.2/7.3 Activity: increase” value was “O”.
`CC(O)(CC(=O)Nc1nc2ccc(C#N)cc2n1C1(C)CCC1)c1ccc(F)cc1F` (single isomer, unassigned) [Example 430, N-(6-cyano-1-(1-methylcyclobutyl)-1H-benzo[d]imidazol-2-yl)-3-(2,4-difluorophenyl)-3-hydroxybutanamide] was tested, and the “Kv7.2/7.3 Activity: increase” value was “++ (3-3.9 (++))”.

Source: patent US10851067B2, “Kv7 channel activators compositions and methods of use” (Knopp Biosciences LLC, priority 2018, dated 2020)
